In brackets after ≈: the same amount, converted by molar mass. Peptide text beside a SMILES is read from it.
How the values were obtained:
[1] = system: P. aeruginosa H1001 (fliC::luxCDABE); assay type: cell-based, Pseudomonas aeruginosa; conditions: SPOT-synthesized unpurified crude peptide (~70% purity); bioluminescent engineered P. aeruginosa; BM2 medium; 4 h, 37 °C; reduction of luminescence; 200 to 3 μg mL−1 tested
Method: A peptide array composed of 20 peptides (15 guavanins, 4 Pg-AMP1 fragments, and magainin 2) was designed and synthesized by Kinexus Bioinformatics Corporation (Vancouver, BC). Peptides were produced in a standard mass of 80 μg by using cellulose support in SPOT technology. The crude synthetic peptides were obtained from cellulose membrane discs that had already been treated with ammonia gas to release the peptides from the membrane. Peptides were then dissolved overnight in distilled water and subsequently evaluated for their biological activities, as described below.
The antimicrobial activity of the synthesized peptides was evaluated against an engineered luminescent P. aeruginosa H1001 (fliC::luxCDABE) strain in 96-well microplates. Aqueous solutions of peptides released from the cellulose spots were diluted twofold in BM2 medium [62 mM potassium phosphate buffer pH 7; 2 mM MgSO4; 10 μM FeSO4; 0.4% (wt/vol) glucose] down the eight wells of a 96-well plate, achieving a final volume of 25 μL in each well. Subsequently, 50 μL of overnight culture of P. aeruginosa H1001 (fliC::luxCDABE) were subcultured in 5 mL of fresh LB media and grown until they reached an OD600 of 0.4. This growing bacteria culture was then diluted 4:100 (v/v) into fresh BM2 media and 25 μL of this diluted bacterial culture was transferred to the microplate wells containing 25 μL of peptide solution. The final peptide concentrations tested ranged from 200 to 3 μg mL^−1. The plates were incubated for 4 h at 37 °C with constant shaking at 50 rpm. Luminescence was measured on a Tecan […]luor Plus Microplate Reader (Tecan US, Morrisville, NC). The antimicrobial activity was evaluated by the ability of the peptides to reduce the luminescence of P. aeruginosa-lux strain compared to untreated cells. The AMP magainin 2 and the carbapenem meropenem were used as positive controls and distilled water was used as a negative control.

human erythrocytes = assay: Hemolytic assay; conditions: SPOT-synthesized crude peptides; human red blood cells in NaCl 0.85%, 1 h, 37 °C; hemoglobin release at 546 nm; highest concentration 200 μg mL−1; 100% of hemolysis was not observed
Method: Fresh human venous blood was collected from volunteers in Vacutainer collection tubes containing sodium heparin as an anticoagulant (BD Biosciences, Franklin Lakes, NJ). The blood was centrifuged applying 151 × g force (1500 rpm) and the serum was removed and the blood cells were replaced and washed three times with the same volume of sterile NaCl 0.85% solution. Concentrated red blood cells were diluted tenfold in NaCl 0.85% solution and then exposed at twofold dilutions of peptides for 1 h at 37 °C, at identical concentrations used for antimicrobial assays, in the ratio of 1:1 (v/v), achieving a final volume of 100 μL. The assay was carried out in 96-well polypropylene microtiter plates. The positive control wells contained 1% of Triton X-100, representing 100% cell lysis, and negative control wells contained sterile saline. Hemoglobin release was monitored chromogenically at 546 nm using a microplate reader.

SMILES	MIC [1]	Hemolysis (human erythrocytes)
N=C(N)NCCC[C@H](NC(=O)CNC(=O)[C@H](CO)NC(=O)CNC(=O)[C@H](Cc1ccc(O)cc1)NC(=O)CNC(=O)CNC(=O)CNC(=O)[C@H](Cc1ccc(O)cc1)NC(=O)[C@H](CCCNC(=N)N)NC(=O)CNC(=O)CNC(=O)CNC(=O)[C@H](Cc1ccc(O)cc1)NC(=O)CNC(=O)CNC(=O)[C@H](Cc1ccc(O)cc1)NC(=O)CNC(=O)[C@H](Cc1ccc(O)cc1)NC(=O)[C@@H](N)CCCNC(=N)N)C(N)=O [Fragment 2 (net charge)] (H-RYGYGGYGGGRYGGGYGSGR-NH2)	200 µg/mL (≈ 99.2 µM)	100 µg/mL
CC(C)C[C@H](NC(=O)[C@H](CCCCN)NC(=O)[C@@H](N)CCCNC(=N)N)C(=O)N[C@H](C(=O)N[C@@H](CCC(=O)O)C(=O)N[C@@H](CS)C(=O)N[C@@H](Cc1ccc(O)cc1)C(=O)N[C@@H](CCC(=O)O)C(=O)N[C@@H](CCCNC(=N)N)C(=O)N[C@@H](C)C(=O)N[C@@H](CCC(=O)O)C(=O)N[C@@H](CCCNC(=N)N)C(=O)N[C@@H](CC(=O)O)C(=O)N[C@@H](C)C(=O)N[C@@H](CC(N)=O)C(=O)N[C@@H](CCCNC(=N)N)C(=O)N[C@@H](CO)C(=O)NCC(=O)N[C@@H](CCCNC(=N)N)C(=O)N[C@@H](CCCNC(=N)N)C(N)=O)C(C)C [Guavanin 15] (H-RKLVECYERAERDANRSGRR-NH2)	200 µg/mL (≈ 81.2 µM)	> 200 µg/mL
N=C(N)NCCC[C@H](NC(=O)CNC(=O)[C@H](CO)NC(=O)CNC(=O)[C@H](Cc1ccc(O)cc1)NC(=O)CNC(=O)CNC(=O)CNC(=O)[C@H](Cc1ccc(O)cc1)NC(=O)[C@H](CCCNC(=N)N)NC(=O)CNC(=O)CNC(=O)CNC(=O)[C@H](Cc1ccc(O)cc1)NC(=O)CNC(=O)CNC(=O)[C@H](Cc1ccc(O)cc1)NC(=O)CNC(=O)[C@@H](N)Cc1ccc(O)cc1)C(=O)NCC(N)=O [Fragment 3 (hydrophobicity)] (H-YGYGGYGGGRYGGGYGSGRG-NH2)	> 200 µg/mL	> 200 µg/mL
CC[C@H](C)[C@H](NC(=O)CNC(=O)[C@H](CCCNC(=N)N)NC(=O)[C@H](CC(N)=O)NC(=O)[C@H](Cc1ccccc1)NC(=O)[C@H](CO)NC(=O)[C@H](CCCNC(=N)N)NC(=O)[C@H](CO)NC(=O)[C@H](C)NC(=O)[C@H](CCC(N)=O)NC(=O)[C@H](CCCCN)NC(=O)[C@H](Cc1ccc(O)cc1)NC(=O)[C@H](CC(C)C)NC(=O)[C@H](CCC(=O)O)NC(=O)[C@H](CCSC)NC(=O)[C@@H](NC(=O)[C@H](CO)NC(=O)[C@@H](N)CCCNC(=N)N)[C@@H](C)CC)C(=O)N[C@@H](CCCNC(=N)N)C(=O)N[C@@H](CCCNC(=N)N)C(N)=O [Guavanin 6] (H-RSIMELYKQASRSFNRGIRR-NH2)	100 µg/mL (≈ 40.5 µM)	> 200 µg/mL
CC[C@H](C)[C@H](NC(=O)[C@H](CCCNC(=N)N)NC(=O)[C@H](CC(N)=O)NC(=O)[C@H](Cc1ccccc1)NC(=O)[C@H](Cc1ccc(O)cc1)NC(=O)[C@H](CCCNC(=N)N)NC(=O)[C@H](Cc1ccccc1)NC(=O)[C@H](C)NC(=O)[C@H](CCC(=O)O)NC(=O)[C@H](CCC(=O)O)NC(=O)[C@H](Cc1ccc(O)cc1)NC(=O)[C@H](CCSC)NC(=O)[C@H](CCC(=O)O)NC(=O)[C@H](CCSC)NC(=O)[C@H](CC(C)C)NC(=O)[C@H](CCCCN)NC(=O)[C@@H](N)CCCNC(=N)N)C(=O)N[C@@H](CO)C(=O)N[C@@H](CCCNC(=N)N)C(=O)N[C@@H](CCCNC(=N)N)C(N)=O [Guavanin 5] (H-RKLMEMYEEAFRYFNRISRR-NH2)	100 µg/mL (≈ 37.1 µM)	> 200 µg/mL
CC[C@H](C)[C@H](NC(=O)[C@H](CCCNC(=N)N)NC(=O)[C@H](CCC(=O)O)NC(=O)[C@H](Cc1ccc(O)cc1)NC(=O)[C@H](CCC(N)=O)NC(=O)[C@H](CCCCN)NC(=O)[C@H](CCSC)NC(=O)CNC(=O)[C@H](CCCNC(=N)N)NC(=O)[C@@H](N)CCCNC(=N)N)C(=O)N[C@@H](CO)C(=O)N[C@@H](CCCNC(=N)N)C(=O)N[C@@H](CC(=O)O)C(=O)N[C@@H](C)C(=O)N[C@@H](CC(N)=O)C(=O)N[C@@H](CCCNC(=N)N)C(=O)N[C@@H](CO)C(=O)N[C@@H](Cc1ccc(O)cc1)C(=O)N[C@@H](CCCNC(=N)N)C(=O)N[C@@H](CCCNC(=N)N)C(N)=O [Guavanin 1] (H-RRGMKQYERISRDANRSYRR-NH2)	200 µg/mL (≈ 77 µM)	> 200 µg/mL
CC(C)[C@H](NC(=O)CNC(=O)[C@H](CCC(N)=O)NC(=O)CNC(=O)[C@@H](NC(=O)[C@@H]1CCCN1C(=O)[C@H](CCC(N)=O)NC(=O)CN)C(C)C)C(=O)N[C@@H](CCC(=O)O)C(=O)N[C@@H](CCCNC(=N)N)C(=O)N[C@@H](CO)C(=O)N[C@@H](Cc1c[nH]cn1)C(=O)N[C@@H](CC(=O)O)C(=O)N[C@@H](CC(=O)O)C(=O)N[C@@H](CC(N)=O)C(=O)N[C@@H](CCCNC(=N)N)C(=O)N[C@@H](CC(N)=O)C(=O)N[C@@H](CCC(N)=O)C(=O)N1CCC[C@H]1C(=O)N[C@@H](CCCNC(=N)N)C(N)=O [Fragment 4 (hydrophobic moment)] (H-GQPVGQGVERSHDDNRNQPR-NH2)	> 200 µg/mL	> 200 µg/mL
CSCC[C@H](NC(=O)[C@H](Cc1ccc(O)cc1)NC(=O)[C@H](CCCNC(=N)N)NC(=O)[C@@H](N)CCCNC(=N)N)C(=O)N[C@@H](CCC(=O)O)C(=O)N[C@@H](CS)C(=O)N[C@@H](Cc1ccc(O)cc1)C(=O)N[C@@H](CCC(=O)O)C(=O)N[C@@H](CCC(N)=O)C(=O)N[C@@H](C)C(=O)N[C@@H](CCC(=O)O)C(=O)N[C@@H](CCCNC(=N)N)C(=O)N[C@@H](Cc1ccc(O)cc1)C(=O)N[C@@H](Cc1ccccc1)C(=O)N[C@@H](CCCNC(=N)N)C(=O)N[C@@H](CCCNC(=N)N)C(=O)N[C@@H](Cc1ccccc1)C(=O)NCC(=O)N[C@@H](CCCNC(=N)N)C(=O)N[C@@H](CCCNC(=N)N)C(N)=O [Guavanin 13] (H-RRYMECYEQAERYFRRFGRR-NH2)	25 µg/mL (≈ 9.02 µM)	> 200 µg/mL
CC[C@H](C)[C@H](NC(=O)[C@H](C)NC(=O)[C@H](CCC(=O)O)NC(=O)[C@H](CCC(=O)O)NC(=O)[C@H](Cc1ccc(O)cc1)NC(=O)[C@H](CCC(N)=O)NC(=O)[C@H](CCCNC(=N)N)NC(=O)[C@H](CCSC)NC(=O)[C@H](Cc1ccc(O)cc1)NC(=O)[C@H](CCCCN)NC(=O)[C@@H](N)CCCNC(=N)N)C(=O)N[C@@H](CCCNC(=N)N)C(=O)N[C@@H](CC(=O)O)C(=O)NCC(=O)N[C@@H](CC(N)=O)C(=O)N[C@@H](CCCNC(=N)N)C(=O)N[C@@H](CO)C(=O)N[C@H](C(=O)N[C@@H](CCCNC(=N)N)C(=O)N[C@@H](CCCNC(=N)N)C(N)=O)[C@@H](C)CC [Guavanin 3] (H-RKYMRQYEEAIRDGNRSIRR-NH2)	> 200 µg/mL	> 200 µg/mL
CC[C@H](C)[C@H](NC(=O)CNC(=O)[C@H](CCCNC(=N)N)NC(=O)[C@H](CCC(N)=O)NC(=O)CNC(=O)[C@H](CCCCN)NC(=O)[C@H](CCCNC(=N)N)NC(=O)[C@H](CC(C)C)NC(=O)[C@H](C)NC(=O)[C@H](CCCNC(=N)N)NC(=O)[C@H](CCC(=O)O)NC(=O)[C@H](Cc1ccc(O)cc1)NC(=O)[C@H](C)NC(=O)[C@H](CCC(=O)O)NC(=O)[C@H](Cc1ccc(O)cc1)NC(=O)[C@H](Cc1ccc(O)cc1)NC(=O)[C@H](CO)NC(=O)[C@@H](N)CCCNC(=N)N)C(=O)N[C@@H](CCCNC(=N)N)C(=O)N[C@@H](CCCNC(=N)N)C(N)=O [Guavanin 8] (H-RSYYEAYERALRKGQRGIRR-NH2)	100 µg/mL (≈ 39.6 µM)	> 200 µg/mL
CC[C@H](C)[C@H](NC(=O)[C@H](C)NC(=O)[C@H](CCC(N)=O)NC(=O)[C@H](CCC(=O)O)NC(=O)[C@H](Cc1ccc(O)cc1)NC(=O)[C@H](CC(C)C)NC(=O)[C@H](CCC(=O)O)NC(=O)[C@H](CCSC)NC(=O)[C@H](CC(C)C)NC(=O)[C@H](CCCCN)NC(=O)[C@@H](N)CCCNC(=N)N)C(=O)N[C@@H](CCCNC(=N)N)C(=O)N[C@@H](Cc1ccc(O)cc1)C(=O)NCC(=O)N[C@@H](CCCCN)C(=O)N[C@@H](CCCNC(=N)N)C(=O)N[C@@H](CO)C(=O)N[C@@H](Cc1ccc(O)cc1)C(=O)N[C@@H](CCCNC(=N)N)C(=O)N[C@@H](CCCNC(=N)N)C(N)=O [Guavanin 12] (H-RKLMELYEQAIRYGKRSYRR-NH2)	25 µg/mL (≈ 9.56 µM)	> 200 µg/mL
CC[C@H](C)[C@H](NC(=O)CN)C(=O)NCC(=O)N[C@@H](CCCCN)C(=O)N[C@@H](Cc1ccccc1)C(=O)N[C@@H](CC(C)C)C(=O)N[C@@H](Cc1c[nH]cn1)C(=O)N[C@@H](CO)C(=O)N[C@@H](C)C(=O)N[C@@H](CCCCN)C(=O)N[C@@H](CCCCN)C(=O)N[C@@H](Cc1ccccc1)C(=O)NCC(=O)N[C@@H](CCCCN)C(=O)N[C@@H](C)C(=O)N[C@@H](Cc1ccccc1)C(=O)N[C@H](C(=O)NCC(=O)N[C@@H](CCC(=O)O)C(=O)N[C@H](C(=O)N[C@@H](CCSC)C(=O)N[C@@H](CC(N)=O)C(=O)N[C@@H](CO)C(N)=O)[C@@H](C)CC)C(C)C [Magainin 2, reference compound] (H-GIGKFLHSAKKFGKAFVGEIMNS-NH2)	100 µg/mL (≈ 40.6 µM)	

From article PMC5902452, “In silico optimization of a guava antimicrobial peptide enables combinatorial exploration for peptide design” (Nature Communications, 2018)
